What is called EC50 is the concentration needed to bring the measured effect to its halfway point.

Here are results for 2 compounds from paper PMC7203735, “Characterization of an A-Type Muscarinic Acetylcholine Receptor and Its Possible Non-neuronal Role in the Oriental Armyworm, Mythimna separata Walker (Lepidoptera: Noctuidae)” (Frontiers in Physiology, 2020).

The target in the assay is T1, Ms A-type mAChR (Ms A-mAChR) (Mythimna separata, UniProt A0A2D1QUJ3).
T1 sequence (A0A2D1QUJ3 1-601): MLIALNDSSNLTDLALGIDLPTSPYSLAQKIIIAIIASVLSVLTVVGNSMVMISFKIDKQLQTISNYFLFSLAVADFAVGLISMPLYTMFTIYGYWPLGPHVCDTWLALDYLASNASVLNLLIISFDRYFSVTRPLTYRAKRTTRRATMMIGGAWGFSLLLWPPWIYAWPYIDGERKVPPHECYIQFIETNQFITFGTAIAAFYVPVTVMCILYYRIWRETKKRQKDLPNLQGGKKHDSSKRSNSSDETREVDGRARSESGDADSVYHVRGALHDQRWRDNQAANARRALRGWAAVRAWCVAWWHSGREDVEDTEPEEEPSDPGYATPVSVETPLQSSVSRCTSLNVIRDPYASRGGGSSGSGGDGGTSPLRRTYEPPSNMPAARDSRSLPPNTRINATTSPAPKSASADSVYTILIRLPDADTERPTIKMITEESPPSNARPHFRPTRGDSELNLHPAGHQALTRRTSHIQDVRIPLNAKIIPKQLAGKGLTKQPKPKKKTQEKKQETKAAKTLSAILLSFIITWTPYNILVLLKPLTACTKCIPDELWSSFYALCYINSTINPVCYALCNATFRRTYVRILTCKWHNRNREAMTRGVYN
The assay is described as follows: FLIPR calcium mobilization in transfected HEK […] cells. The format is cell-based. A general note: Calcium flux is commonly read through the fluorescence of an indicator in the cells.

Molecules are shown by their SMILES. Read-outs that look alike come from different tables or passages of the source.

`C[C@@H]1O[C@H](C[N+](C)(C)C)C[C@H]1O` [muscarine]: the EC50 turned out to be 388 nM.

For the compound `C[N+](C)(C)CCOC(N)=O` [carbachol], the EC50 (read-out: EC50) is 125 nM.
